Molecular target: T1, 5-Lipoxygenase (Homo sapiens, UniProt P09917)
T1 construct: from tissue; host or cells: human heparinized whole blood (endogenous enzyme of its blood cells)
T1 sequence (P09917 1-674): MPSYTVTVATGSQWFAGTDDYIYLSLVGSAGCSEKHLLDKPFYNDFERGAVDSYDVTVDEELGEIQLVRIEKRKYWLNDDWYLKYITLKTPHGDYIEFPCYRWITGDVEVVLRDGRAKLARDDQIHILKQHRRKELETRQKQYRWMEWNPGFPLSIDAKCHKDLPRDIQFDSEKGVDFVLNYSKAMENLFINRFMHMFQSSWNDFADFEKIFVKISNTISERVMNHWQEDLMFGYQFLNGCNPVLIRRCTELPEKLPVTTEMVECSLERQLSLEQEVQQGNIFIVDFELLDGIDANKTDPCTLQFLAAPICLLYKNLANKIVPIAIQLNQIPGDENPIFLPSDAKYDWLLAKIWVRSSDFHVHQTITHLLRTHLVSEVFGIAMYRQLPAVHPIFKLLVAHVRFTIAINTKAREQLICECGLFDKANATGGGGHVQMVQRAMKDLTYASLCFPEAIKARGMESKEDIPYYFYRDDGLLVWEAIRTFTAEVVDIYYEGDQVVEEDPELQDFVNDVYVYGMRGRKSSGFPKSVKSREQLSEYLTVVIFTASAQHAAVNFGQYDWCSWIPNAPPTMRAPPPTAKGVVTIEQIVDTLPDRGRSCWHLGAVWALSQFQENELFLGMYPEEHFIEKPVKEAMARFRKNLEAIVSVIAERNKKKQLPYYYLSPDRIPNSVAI
Assay: Inhibition of leukotriene biosynthesis: calcium ionophore A23187-induced LTB4 biosynthesis in human whole blood (RIA)
Format: cell-based
Details: @ 0.20 μM; human whole blood, A23187; read-out: Inhibition of stimulated LTB4 formation in human whole blood
Protocol: Inhibition of leukotriene biosynthesis was evaluated in an assay, involving calcium ionophore-induced LTB4 biosynthesis expressed human whole blood. Human heparinized whole blood was preincubated with test compounds or vehicle for 15 min at 37° C. followed by calcium ionophore A23187 challenge (final concentration of 8.3 μM) and the reaction terminated after 30 min by adding two volumes of methanol containing prostaglandin B2 as an internal recovery standard. The methanol extract was analyzed for LTB4 using a commercially available radioimmunoassay.

Compound CON=C(c1cc(F)cc(OCc2ccc3c(ccc(=O)n3C)c2)c1)C1CCOCC1 [Example 15, E- and Z-O-methyl-[(3-((1,2-dihydro-1-methyl-2-oxoquinolin-6-yl)methoxy)-5-fluorophen-1-yl)oximinomethyl]tetrahydropyran] has an inhibition at 0.2 µM of 99.6%.

Same assay, conditions: @ 0.39 μM; human whole blood, A23187; read-out: Inhibition of stimulated LTB4 formation in human whole blood

In order of rising inhibition at 0.39 µM:
1. CON=C(c1cccc(OCc2ccc3ccccc3c2)c1)C1CCOCC1 [Example 7, E- and Z-O-methyl-4-[(3-(naphth-2-yl)methoxyphen-1-yl)oximinomethyl]tetrahydropyran]  68%
2. Cn1c(=O)ccc2cc(COc3cccc(C(=NO)C4CCOCC4)c3)ccc21 [Example 11, E- and Z-4-[(3-((1,2-dihydro-1-methyl-2-oxoquinolin-6-yl)methoxy)phen-1-yl)oximinomethyl]tetrahydropyran]  73%

Same assay, conditions: @ 0.78 μM; human whole blood, A23187; read-out: Inhibition of stimulated LTB4 formation in human whole blood

In order of rising inhibition at 0.78 µM:
1. Cn1c(=O)ccc2cc(COc3cc(F)cc(C(=NO)C4CCOCC4)c3)ccc21 [Example 16, E- and Z-4-[(3-((1,2-dihydro-1-methyl-2-oxoquinolin-6-yl)methoxy)-5-fluorophen-1-yl) oximinomethyl]tetrahydropyran]  98%
2. CON=C(c1cccc(OCc2ccc3c(ccc(=O)n3C)c2)c1)C1CCOCC1 [Example 12, E- and Z-O-Methyl-4-[(3-((1,2-dihydro-1-methyl-2-oxoquinolin-6-yl)methoxy)phen-1-yl)oximinomethyl]tetrahydropyran]  99%

Same assay, conditions: human heparinized whole blood, 15 min preincubation at 37° C., A23187 8.3 μM, 30 min; LTB4 by RIA; read-out: In vitro inhibitory potency against 5-lipoxygenase from stimulated LTB4 formation in human whole blood, IC50

In order of rising IC50:
1. COC(c1cccc(OCc2ccc3c(ccc(=O)n3C)c2)c1)C1CCOCC1 (centres unmarked) [Example 9, 4-[(3-(1,2-dihydro-1-methyl-2-oxoquinolin-6-yl)methyloxyphen-1-yl)methoxymethyl]tetrahydropyran]  710 nM
2. COC(c1cccc(OCc2ccc3ccccc3c2)c1)C1CCOCC1 (centres unmarked) [Example 2, 4-[(3-(naphth-2-yl)methoxyphen-1-yl)methoxymethyl]tetrahydropyran]  730 nM
3. CCON=C(c1cccc(OCc2ccc3c(ccc(=O)n3C)c2)c1)C1CCOCC1 [Example 13, E- and Z-O-Ethyl-4-[(3-((1,2-dihydro-1-methyl-2-oxoquinolin-6-yl)methoxy)phen-1-yl)oximinomethyl]tetrahydropyran]  830 nM
4. COCOC(c1cccc(OCc2ccc3c(ccc(=O)n3C)c2)c1)C1CCOCC1 (centres unmarked) [Example 10, 4-[(3-((1,2-dihydro-1-methyl-2-oxoquinolin-6-yl)methoxy)phen-1-yl)methoxymethoxymethyl]tetrahydropyran]  940 nM
5. COC1(Cc2cccc(OCc3ccc4ccccc4c3)c2)CCOCC1 [Example 14, 4-methoxy-4-[(3-((naphth-2-yl)methoxy)phen-1-yl)methyl]tetrahydropyran]  2000 nM
6. NN=C(c1cccc(OCc2ccc3ccccc3c2)c1)C1CCOCC1 [Example 6]  2400 nM
7. CON=C(c1cc(F)cc(OCc2ccc3ccccc3c2)c1)C1(C)COC1 [Example 17, E- and Z-O-methyl-3-methyl-3-[(3-((naphth-2-yl)methoxy)-5-fluorophen-1-yl)oximinomethyl]oxetane]  2900 nM
8. OC(c1cccc(OCc2ccc3ccccc3c2)c1)C1CCOCC1 (centres unmarked) [Example 1, 4-[(3-(naphth-2-yl)methoxyphen-1-yl)hydroxymethyl]tetrahydropyran]  3500 nM
9. CC1(C(=NO)c2cc(F)cc(OCc3ccc4ccccc4c3)c2)COC1 [Example 18, E- and Z-3-methyl-3-[(3-((naphth-2-yl)methoxy)-5-fluorophen-1-yl)oximinomethyl]oxetane]  5200 nM

From US5354865A, “Phenylmethyl derivatives having lipoxygenase inhibitory activity” (Abbott Laboratories, priority 1992, dated 1994)
